Experimental data published in PubChem BioAssay (NCI).
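Exposure lasted 48 hours, with cells grown in 96-well plates and compounds tested at five concentrations. The concentration for 50% growth inhibition is given as GI50. TGI marks complete inhibition of growth.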

How the values were obtained:
Assay in all cases: NCI-60 cell line screen, 48 h
[1] = test system: HOP-92 NSCLC
[2] = test system: M14 melanoma
[3] = test system: MDA-MB-435
[4] = test system: T-47D breast
[5] = test system: SW-620 colon
[6] = test system: U251 CNS
[7] = test system: MCF7 breast
[8] = test system: SF-539 CNS
[9] = test system: IGROV1 ovarian
[10] = test system: NCI-H226 lung
[11] = test system: HOP-62 NSCLC
[12] = test system: SF-295 CNS
[13] = test system: NCI/ADR-RES ovarian
[14] = test system: A549 NSCLC
[15] = test system: OVCAR-4 ovarian
[16] = test system: 786-0 renal
[17] = test system: KM12 colon
[18] = test system: SR leukemia
[19] = test system: K-562 leukemia
[20] = test system: UACC-62 melanoma
[21] = test system: CCRF-CEM leukemia
[22] = test system: HL-60(TB) leukemia
[23] = test system: OVCAR-8 ovarian
[24] = test system: RXF 393 renal
[25] = test system: NCI-H460 lung
[26] = test system: SNB-19 CNS
[27] = test system: SK-MEL-5 melanoma
[28] = test system: PC-3 prostate
[29] = test system: CAKI-1 renal
[30] = test system: OVCAR-5 ovarian
[31] = test system: SNB-75 CNS
[32] = test system: HCC-2998 colon
[33] = test system: UACC-257 melanoma
[34] = test system: SN12C renal
[35] = test system: UO-31 renal
[36] = test system: SF-268 CNS
[37] = test system: TK-10 renal
[38] = test system: HCT-116 colon
[39] = test system: OVCAR-3 ovarian
[40] = test system: MALME-3M melanoma
[41] = test system: HS 578T breast
[42] = test system: SK-MEL-2 melanoma
[43] = test system: A498 renal
[44] = test system: DU-145 prostate
[45] = test system: NCI-H23 lung
[46] = test system: SK-MEL-28 melanoma
[47] = test system: MOLT-4 leukemia
[48] = test system: SK-OV-3 ovarian
[49] = test system: COLO 205 colon
[50] = test system: HCT-15 colon
[51] = test system: RPMI-8226 leukemia
[52] = test system: MDA-MB-231 breast
[53] = test system: ACHN renal
[54] = test system: BT-549 breast
[55] = test system: HT29 colon

CN(C)c1ccc2nc3ccc(=N)cc-3sc2c1
GI50 [1]: 3.79 µM | TGI [1]: 41.6 µM | GI50 [2]: 3.9 µM | TGI [2]: 14.3 µM | GI50 [3]: 1750 nM | TGI [3]: 3.63 µM | GI50 [4]: 3.63 µM | TGI [4]: 21.3 µM | GI50 [5]: 2830 nM | TGI [5]: 12.9 µM | GI50 [6]: 2710 nM | TGI [6]: 10.5 µM | GI50 [7]: 1910 nM | TGI [7]: 6.29 µM | GI50 [8]: 2200 nM | TGI [8]: 5.12 µM | GI50 [9]: 8.59 µM | TGI [9]: 35.9 µM | GI50 [10]: 12.1 µM | TGI [10]: 28.8 µM | GI50 [11]: 6.87 µM | TGI [11]: 51.5 µM | GI50 [12]: 5.98 µM | TGI [12]: 21.2 µM | GI50 [13]: 3.11 µM | TGI [13]: 48.3 µM | GI50 [14]: 2370 nM | TGI [14]: 13.9 µM | GI50 [15]: 1040 nM | TGI [15]: 2470 nM | GI50 [16]: 11.8 µM | TGI [16]: 28.7 µM | GI50 [17]: 3.67 µM | TGI [17]: 21.7 µM | GI50 [18]: 6.86 µM | TGI [18]: > 100 µM | GI50 [19]: 2610 nM | TGI [19]: > 100 µM | GI50 [20]: 2660 nM | TGI [20]: 8.19 µM | GI50 [21]: 2150 nM | TGI [21]: > 100 µM | GI50 [22]: 7.53 µM | TGI [22]: 32.9 µM | GI50 [23]: 2140 nM | TGI [23]: 12 µM | GI50 [24]: 10.4 µM | TGI [24]: 26.8 µM | GI50 [25]: 7.06 µM | TGI [25]: > 100 µM | GI50 [26]: 2860 nM | TGI [26]: 21.1 µM | GI50 [27]: 1510 nM | TGI [27]: 5.78 µM | GI50 [28]: 1030 nM | TGI [28]: 14.2 µM | GI50 [29]: 4.21 µM | TGI [29]: 19.3 µM | GI50 [30]: 11 µM | TGI [30]: 29.4 µM | GI50 [31]: 3.29 µM | TGI [31]: 15.4 µM | GI50 [32]: 8.39 µM | TGI [32]: > 100 µM | GI50 [33]: 2600 nM | TGI [33]: 9.71 µM | GI50 [34]: 2370 nM | TGI [34]: 8.06 µM | GI50 [35]: 11.6 µM | TGI [35]: 31.2 µM | GI50 [36]: 4.13 µM | TGI [36]: 20 µM | GI50 [37]: 7.76 µM | TGI [37]: 31.4 µM | GI50 [38]: 2380 nM | TGI [38]: 12.5 µM | GI50 [39]: 2750 nM | TGI [39]: 12 µM | GI50 [40]: 2260 nM | TGI [40]: 7.67 µM | GI50 [41]: 11.4 µM | TGI [41]: 39.5 µM | GI50 [42]: 9.24 µM | TGI [42]: 26.8 µM | GI50 [43]: 2020 nM | TGI [43]: 39.5 µM | GI50 [44]: 14.3 µM | TGI [44]: 28.3 µM | GI50 [45]: 3.3 µM | TGI [45]: 49.5 µM | GI50 [46]: 11.9 µM | TGI [46]: 27.7 µM | GI50 [47]: 3.47 µM | TGI [47]: > 100 µM | GI50 [48]: 10.6 µM | TGI [48]: 38.7 µM | GI50 [49]: 2730 nM | TGI [49]: 10.3 µM | GI50 [50]: 3.07 µM | TGI [50]: 24.4 µM | GI50 [51]: 1210 nM | TGI [51]: 25.7 µM | GI50 [52]: 1880 nM | TGI [52]: 11.8 µM | GI50 [53]: 5.43 µM | TGI [53]: 39.8 µM | GI50 [54]: 7.74 µM | TGI [54]: 69 µM | GI50 [55]: 21.6 µM | TGI [55]: 63.5 µM
